Experiments:
Plasmodium falciparum [1] = test: Hit confirmation in dose-response curve in NF54 nanoGlo assay, at 72h; format: functional, organism-based, Erythrocyte; set-up: timepoint 72 hour; settings: Plasmodium falciparum, NF54, Erythrocyte, 72 h
[2] = Hit confirmation in dose-response curve in HepG2 cytotoxicity assay, at 72h; format: toxicity, cell-based; set-up: timepoint 72 hour; settings: human, HepG2 cells
Plasmodium falciparum [3] = test: Hit confirmation in dose-response curve in Dd2 pLDH assay, at 72h; format: functional, organism-based; set-up: timepoint 72 hour; settings: Dd2, Erythrocyte
Plasmodium falciparum [4] = test: Hit confirmation in dose-response curve in NF54 pLDH assay, at 72h; format: functional, organism-based; set-up: timepoint 72 hour; settings: NF54, Erythrocyte
Plasmodium falciparum [5] = test: Hit confirmation in dose-response curve in NF54 nanoGlo assay, at 12h; format: functional, organism-based, Erythrocyte; set-up: timepoint 12 hour; settings: Plasmodium falciparum, NF54, Erythrocyte, 12 h

| IC50 (Plasmodium falciparum [1]) [µM] | IC50 (Plasmodium falciparum [3]) [µM] | IC50 (Plasmodium falciparum [4]) [µM] | IC50 (Plasmodium falciparum [5]) [µM] | Compound | IC50 at 72 h [2] [µM] |
| --- | --- | --- | --- | --- | --- |
| 3.02 | 6.61 | 10 | > 10 | CC(C)c1ccc(Oc2cnn(-c3cccc(Cl)c3)c(=O)c2Nc2cccc(C(=O)NC3CC3)c2)cc1 | > 10 |
| 2.19 | 3.24 | 4.17 | 3.98 | CN(Cc1ccc(-c2ccccc2)cc1)c1cc([C@H]2C[C@@H](N)C2)nc(N)n1 | > 10 |
| 0.933 | 2.19 | 3.24 | 2.82 | COc1cccc(S(=O)(=O)N2CCCN(Cc3ccncc3)[C@H](c3ccccc3)CC(=O)NCC2)c1 | > 10 |
| 1 | 1.23 | 1.35 | 1.7 | CCN1C(=O)c2ccccc2N2C(=O)CC[C@@]12C(=O)Nc1cccc(OC)c1 | > 10 |
| 4.68 | 10.7 | > 10 | > 10 | Cc1cc(OCCOCCNCCN)cc(C(C)C)c1 | > 10 |
| 0.724 | 0.891 | 2.29 | > 10 | CCOC(=O)c1cn(CC)c2cc(NC3CCCCC3)c(F)cc2c1=O | > 10 |
| 0.457 | 3.16 | 3.63 | > 10 | Cc1cc(NC(=O)c2ccccn2)n(-c2nc3ccccc3o2)n1 | > 10 |
| 4.07 | > 10 | > 10 | 4.47 | CN1CCN(Cc2cc3cc4c(cc3nc2-c2ccc(Cl)cc2)OCO4)CC1=O | > 10 |
| 1.82 | 2.19 | 2.82 | 4.68 | CC[N+](CC)(CC(=O)OC1CC2CCC1(C)C2(C)C)CC(=O)OC1CC2CCC1(C)C2(C)C (stereo not given) | > 10 |
| 2 | 1.78 | 3.8 | 8.51 | O[C@H]1CNCC[C@@H]1Nc1cc(-c2ccccc2)nc2ccccc12 | > 10 |
| 3.55 | 6.61 | > 10 | 4.9 | COc1ccc(CCNc2nc(-c3ccc(OC)cc3F)c3c(N)n(-c4ccc(Cl)cc4)nc3n2)cc1 | > 10 |
| 2.57 | 2.24 | 3.8 | > 10 | C[N+]1(CCCC(=O)c2ccc3c(c2)OCCO3)CCC(c2ccccc2)C1 (stereo not given) | > 10 |
| 2.29 | 3.63 | 3.89 | 2.95 | OC(CNC1CCCNc2ccccc21)c1ccc(Cl)s1 (stereo not given) | > 10 |
| 0.324 | 0.631 | 0.776 | 0.457 | CCNc1nc(C)cc(Nc2ccc(NC(=O)c3cc(C)ccc3C)cc2)n1 | > 10 |
| 1.32 | > 10 | 1.7 | > 10 | COc1nc(NC[C@H]2CCCN2C(C)C)ncc1F | > 10 |
| 2.14 | 3.02 | 5.13 | > 10 | COc1ccc(C(=O)CN2C=CCC=C2c2nc(-c3ccc(Cl)cc3)cs2)cc1 | > 10 |
| 2.69 | 3.47 | 7.59 | > 10 | CC(Oc1ccc2c(c1)C(c1ccccc1)N(Cc1ccccc1F)CC2)C(=O)NC1CC1 (stereo not given) | > 10 |
| 1.86 | > 10 | 3.24 | > 10 | Fc1cnc(OC2Cc3ccccc3C2)nc1 | > 10 |
| 2.45 | 5.75 | 7.76 | 5.01 | NC1CC(NCCc2cccc3cccnc23)c2ccccc21 (stereo not given) | > 10 |
| 0.589 | 2.09 | 2 | > 10 | CCOc1ccc2ccccc2c1C(=O)Nc1cc(C)nn1-c1nc2c(c(=O)[nH]1)CCC2 | > 10 |
| 1.38 | 1 | 2.24 | > 10 | COc1ccc(-c2c[n+](-c3ccc(Cl)cc3)c3n2CCCCC3)cc1 | > 10 |
| 2.57 | > 10 | 4.27 | > 10 | Oc1nc(N2CCOC3(CCCC3)C2)ncc1F | > 10 |
| 1.95 | 3.31 | 3.8 | 3.89 | Cc1c(-c2ccc(F)cc2)[nH]c2ccc(CNc3nccc(N(C)C)n3)cc12 | > 10 |
| 1.29 | 4.27 | 6.17 | 2.69 | COc1ccc(Nc2nnc(-c3ccc(NC(=O)C(=O)NCCCn4ccnc4)cc3)s2)cc1 | > 10 |
| 3.24 | > 10 | > 10 | 3.63 | COCCNC(=O)c1ccc(-n2nc(-c3nnc(C)o3)c(C)c2-c2ccc(OC)cc2)cc1 | > 10 |

| IC50 (Plasmodium falciparum [1]) [µM] | IC50 (Plasmodium falciparum [3]) [µM] | IC50 (Plasmodium falciparum [4]) [µM] | IC50 (Plasmodium falciparum [5]) [µM] | Compound | IC50 at 72 h [2] [µM] |
| --- | --- | --- | --- | --- | --- |
| 3.16 | 8.91 | > 10 | 6.92 | COc1ccc(CNC(=O)c2ccc(N3C(=O)[C@@H]4Cc5c([nH]c6ccccc56)C(c5cccc(OC)c5)N4C3=O)cc2)cc1 (stereo not given in full) | > 10 |
| 2.04 | 2.04 | 2.82 | > 10 | C[N+]12CCCCC1C(OC(=O)C1(c3ccccc3)CCCC1)CCC2 (stereo not given) | > 10 |
| 5.01 | 2.63 | 3.63 | 6.31 | CCOC1CC(NC2CC(c3ccc(F)cc3)C2)C12CCC2 (stereo not given) | > 10 |
| 0.0871 | 0.0871 | 0.166 | 7.41 | CC1=CC(=[N+](CCO)CCO)C=C/C1=C(\c1ccc(N(CCO)CCO)cc1C)c1ccccc1Cl | > 10 |
| 2.09 | 3.24 | 2.82 | 6.76 | Cn1ccnc1[C@@H]1CCCN1Cc1nccn1Cc1ccccc1 | > 10 |
| 2.45 | 6.61 | 9.55 | > 10 | CC1CCN(c2nccnc2Oc2ccc(C(=O)NCc3ccccc3Cl)cc2)CC1 | > 10 |
| 0.708 | 2.82 | 6.46 | > 10 | CC(C)c1cc(=O)[nH]c(-n2nc(C3CC3)cc2NC(=O)c2ccc(F)cc2)n1 | 10 |
| 2.14 | 5.13 | 6.76 | 3.63 | Cc1ccc(S(=O)(=O)Nc2c(S(=O)(=O)c3ccccc3)c3nc4ccccc4nc3n2CCc2ccccc2)cc1 | > 10 |
| > 10 | > 10 | > 10 | > 10 | CCOc1cc(CNc2cccc3ccccc23)cc(Br)c1OCC(=O)NC(C)(C)C | > 10 |
| 2.24 | 7.41 | 9.77 | 3.47 | C[C@@]1(C(=O)NCc2ccccc2)Cn2nc(-c3ccccc3)cc2C(=O)N1c1ccc2c(c1)OCCO2 | > 10 |
| 1.2 | 3.09 | 4.79 | 2.63 | N#Cc1cccc(-c2n[nH]c3c2CN(c2ccc(-c4ccccc4)nn2)CC3)c1 | > 10 |
| 2.69 | 3.39 | 8.13 | > 10 | Cc1ccc(Cn2c(=O)c(C(=O)NCc3ccc4c(c3)OCO4)nn(-c3ccc(C(C)C)cc3)c2=O)cc1 | > 10 |
| 1.29 | 1.41 | 3.02 | > 10 | c1ccc(CC2=NCCc3ccccc32)cc1 | > 10 |
| 1.15 | 2.75 | 5.13 | 2.69 | CCOc1ccc(C2c3[nH]c4ccccc4c3C[C@H]3C(=O)N(C4CCN(Cc5ccccc5)CC4)CC(=O)N23)cc1OC (stereo not given in full) | > 10 |
| 1.62 | 7.94 | 9.12 | 1.95 | CC(NCC(O)Cn1c(-c2ccccc2)c(-c2ccccc2)c2ccc3ccccc3c21)c1ccccc1 (stereo not given) | > 10 |
| 0.912 | 2.51 | 2.04 | > 10 | CC(CC1OCC(C[N+]2(Cc3ccccc3)CCCCC2)O1)CC(C)(C)C (stereo not given) | > 10 |
| 0.0269 | > 10 | 0.0708 | > 10 | CCOC(=O)CCn1cc(F)c(=O)[nH]c1=O | > 10 |
| 3.72 | 3.63 | 1.26 | > 10 | CCn1ncc(CN2CC[C@@H]3C(=O)NCCCCCCN(Cc4ccncc4)[C@@H]3C2)c1C | > 10 |
| 1.95 | 3.09 | 5.62 | 5.13 | Oc1ccc(-c2nnc(-c3ccc(O)cc3)nn2)cc1 | > 10 |
| 0.562 | 0.417 | 0.891 | 5.37 | CC[n+]1c(/C=C/N(C)c2ccccc2)oc2ccc(-c3ccccc3)cc21 | > 10 |
| 1.74 | 2.95 | 2.75 | > 10 | O=C(N[C@@H](Cn1nccn1)c1ccccc1)c1cc(Br)ccc1Cl | > 10 |
| 1.58 | 2.29 | 2.09 | 1.91 | COc1ccccc1CN1COc2cc3c(cc2C1)OCO3 | > 10 |
| 0.955 | 3.09 | 2.14 | 8.32 | Cc1cc(=O)[nH]c(-n2nc(C3CC3)cc2NC(=O)C(c2ccccc2)c2ccccc2)n1 | 7.59 |
| 2.57 | > 10 | 3.89 | > 10 | CCN1CCN(C2CCN(c3ncc(F)c(OC)n3)CC2)CC1 | > 10 |

| Compound | IC50 (Plasmodium falciparum [1]) [µM] | IC50 (Plasmodium falciparum [3]) [µM] | IC50 (Plasmodium falciparum [4]) [µM] | IC50 (Plasmodium falciparum [5]) [µM] | IC50 at 72 h [2] [µM] |
| --- | --- | --- | --- | --- | --- |
| Cc1cc(C(=O)NC2CC(C)n3ccnc32)nn1C(C)C (stereo not given) | 2.45 | > 10 | 0.1 | > 10 | > 10 |
